According to patent US20240316022A1 (TYRA BIOSCIENCES, INC., priority 2021, published 2024):

Columns and labels:
[1] = target: T1, FGFR3 (Homo sapiens, UniProt P22607); experiment: Kinase binding assay (kinase-tagged T7 phage, qPCR), Kd; details: read-out: FGFR3 (Kd nM)
T1 construct: made in house; host or cells: E. coli derived from BL21, infected with T7 phage

[2] = target: T2, FGFR4 (Homo sapiens, UniProt P22455); experiment: as above; details: read-out: FGFR4 (Kd nM)
T2 construct: made in house; host or cells: E. coli derived from BL21, infected with T7 phage

[3] = target: T3, FGFR1 (Homo sapiens, UniProt P11362); experiment: as above; details: read-out: FGFR1 (Kd nM)
T3 construct: made in house; host or cells: E. coli derived from BL21, infected with T7 phage

[4] = target: T4, FGFR2 (Homo sapiens, UniProt P21802); experiment: as above; details: read-out: FGFR2 (Kd nM)
T4 construct: made in house; host or cells: E. coli derived from BL21, infected with T7 phage

[5] = target: T5, FGFR3-BAIAP2L1 Ba/F3 (Homo sapiens, UniProt P22607); experiment: Ba/F3 cell viability assay (CellTiter-Glo 2.0); format: cell-based; details: Ba/F3 FGFR3-BAIAP2L1 cells, 48 hours
T5 construct: host or cells: Ba/F3; the other entry of the earlier key: BAIAP2L1 (Q9UHR4, BAR/IMD domain-containing adapter protein 2-like 1)
Description: (§1) Experimental Purpose: Recombinant kinase fusions are transduced into parental Ba/F3, which becomes dependent upon this constitutive kinase activity for IL3-independent survival. Inhibition of kinase activity leads to cell death, which is monitored using CellTiter-Glo® 2.0 (Promega) which measures intracellular ATP concentration that in turn serves as a marker for viability. BCR-FGFR4 Ba/F3, BCR-FGFR1 Ba/F3 and FGFR3-BAIAP2L1 Ba/F3 were obtained from Advanced Cellular Dynamics (Seattle, WA)
(§2) Cell Viability Assay Procedure: Cell Titer-Glo® 2.0 Luminescent cell viability assay reagent was purchased from Promega (Madison, WI). BCR-FGFR4 Ba/F3, BCR-FGFR1 Ba/F3 and FGFR3-BAIAP2L1 Ba/F3 cells were cultured in RPMI1640 media supplemented with 10% fetal bovine serum. Cultures were maintained at 37° C. in a humidified atmosphere of 5% CO2 and 95% air.
(§3) Cells were plated in 96-well clear bottom/white plates (Corning #3903) at 10,000 cells/well in 100 μl of media, incubated overnight. The next day, test compound DMSO stock solutions were made at 10 mM and 2 μM final concentration. Compounds were then added to cells in a 9-dose, 10-fold dilution series starting at 30 μM with an HP 300e Digital Dispenser (each dose was applied in triplicate). DMSO was backfilled to each well up to 301 nL total volume of test compound+DMSO, and a total of 301 nL DMSO was added to a control/no test compound well in triplicate. The cells in cell culture plates were incubated with the compounds at 37° C. and 5% CO2 for 48 hours. Then 50 μl of Cell Titer Glo 2.0 reagent was added to each well of the cell culture plates. The contents were covered from light and mixed on an orbital shaker at room temperature for 10 min. Luminescence was recorded by a Synergy H1 Microplate Reader (Biotek, Winooski, VT). Cells were assessed as a percentage of DMSO only treated control cells. Curves were plotted and IC50 values were calculated using the GraphPad Prism 8 program based on a sigmoidal dose-response equation (4 parameter).

[6] = target: T6, BCR-FGFR1 Ba/F3 (Homo sapiens, UniProt P11362); experiment: Ba/F3 cell viability assay (CellTiter-Glo 2.0); format: cell-based; details: Ba/F3 BCR-FGFR1 cells, 48 hours
T6 construct: host or cells: Ba/F3; the other entry of the earlier key: BCR (P11274, Breakpoint cluster region protein)
Description: as §1, §2, §3

T3 sequence (P11362 22-822): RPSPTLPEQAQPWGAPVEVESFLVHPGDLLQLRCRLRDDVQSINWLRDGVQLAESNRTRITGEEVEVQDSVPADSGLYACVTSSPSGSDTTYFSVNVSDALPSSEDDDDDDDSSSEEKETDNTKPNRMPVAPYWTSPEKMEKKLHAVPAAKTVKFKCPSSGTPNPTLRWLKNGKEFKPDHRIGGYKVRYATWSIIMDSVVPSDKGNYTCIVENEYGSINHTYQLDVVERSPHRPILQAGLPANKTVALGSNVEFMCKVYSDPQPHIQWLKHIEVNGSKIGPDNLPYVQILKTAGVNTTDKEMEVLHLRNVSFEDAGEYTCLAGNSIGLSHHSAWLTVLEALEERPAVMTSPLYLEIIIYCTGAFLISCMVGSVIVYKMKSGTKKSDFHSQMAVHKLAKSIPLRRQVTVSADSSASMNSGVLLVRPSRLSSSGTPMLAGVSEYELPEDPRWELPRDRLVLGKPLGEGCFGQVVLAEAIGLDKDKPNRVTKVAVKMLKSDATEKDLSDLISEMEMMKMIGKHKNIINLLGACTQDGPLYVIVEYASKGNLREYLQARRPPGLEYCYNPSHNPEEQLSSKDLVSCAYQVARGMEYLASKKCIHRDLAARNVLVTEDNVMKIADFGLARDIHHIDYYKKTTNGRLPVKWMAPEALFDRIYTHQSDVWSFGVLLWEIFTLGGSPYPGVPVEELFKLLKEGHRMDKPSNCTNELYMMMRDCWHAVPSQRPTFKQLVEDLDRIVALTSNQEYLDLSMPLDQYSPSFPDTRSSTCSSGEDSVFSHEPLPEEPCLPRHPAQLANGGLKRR
T1 sequence (P22607 23-806): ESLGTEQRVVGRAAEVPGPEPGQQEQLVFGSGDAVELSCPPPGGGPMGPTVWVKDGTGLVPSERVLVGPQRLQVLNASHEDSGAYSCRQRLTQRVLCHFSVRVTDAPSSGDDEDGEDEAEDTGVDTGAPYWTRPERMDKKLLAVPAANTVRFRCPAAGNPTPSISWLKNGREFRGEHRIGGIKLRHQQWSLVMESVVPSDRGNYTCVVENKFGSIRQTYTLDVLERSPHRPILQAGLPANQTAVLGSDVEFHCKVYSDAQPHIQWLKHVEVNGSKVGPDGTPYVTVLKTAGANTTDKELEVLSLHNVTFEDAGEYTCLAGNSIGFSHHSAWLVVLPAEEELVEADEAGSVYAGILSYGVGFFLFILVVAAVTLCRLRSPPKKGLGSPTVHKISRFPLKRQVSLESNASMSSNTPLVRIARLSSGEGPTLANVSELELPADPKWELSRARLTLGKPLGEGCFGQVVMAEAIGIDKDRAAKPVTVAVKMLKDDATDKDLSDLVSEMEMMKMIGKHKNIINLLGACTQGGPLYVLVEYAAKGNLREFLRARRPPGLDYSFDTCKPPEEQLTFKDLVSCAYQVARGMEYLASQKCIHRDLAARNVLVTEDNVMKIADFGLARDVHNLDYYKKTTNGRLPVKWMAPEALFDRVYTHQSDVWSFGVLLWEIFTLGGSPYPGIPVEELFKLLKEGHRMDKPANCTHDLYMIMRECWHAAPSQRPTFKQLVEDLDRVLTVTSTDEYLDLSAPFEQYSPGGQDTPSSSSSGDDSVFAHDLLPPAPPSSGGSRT
T6 sequence (P11362 478-767 limits assumed): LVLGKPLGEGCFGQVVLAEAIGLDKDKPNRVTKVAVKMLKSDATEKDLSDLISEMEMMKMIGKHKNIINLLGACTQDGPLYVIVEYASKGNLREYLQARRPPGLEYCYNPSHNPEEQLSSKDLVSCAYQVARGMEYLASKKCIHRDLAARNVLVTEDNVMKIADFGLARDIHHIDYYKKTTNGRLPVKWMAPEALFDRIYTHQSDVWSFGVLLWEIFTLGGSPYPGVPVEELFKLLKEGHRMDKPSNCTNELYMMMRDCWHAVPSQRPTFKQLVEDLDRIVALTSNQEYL
T2 sequence (P22455 22-802): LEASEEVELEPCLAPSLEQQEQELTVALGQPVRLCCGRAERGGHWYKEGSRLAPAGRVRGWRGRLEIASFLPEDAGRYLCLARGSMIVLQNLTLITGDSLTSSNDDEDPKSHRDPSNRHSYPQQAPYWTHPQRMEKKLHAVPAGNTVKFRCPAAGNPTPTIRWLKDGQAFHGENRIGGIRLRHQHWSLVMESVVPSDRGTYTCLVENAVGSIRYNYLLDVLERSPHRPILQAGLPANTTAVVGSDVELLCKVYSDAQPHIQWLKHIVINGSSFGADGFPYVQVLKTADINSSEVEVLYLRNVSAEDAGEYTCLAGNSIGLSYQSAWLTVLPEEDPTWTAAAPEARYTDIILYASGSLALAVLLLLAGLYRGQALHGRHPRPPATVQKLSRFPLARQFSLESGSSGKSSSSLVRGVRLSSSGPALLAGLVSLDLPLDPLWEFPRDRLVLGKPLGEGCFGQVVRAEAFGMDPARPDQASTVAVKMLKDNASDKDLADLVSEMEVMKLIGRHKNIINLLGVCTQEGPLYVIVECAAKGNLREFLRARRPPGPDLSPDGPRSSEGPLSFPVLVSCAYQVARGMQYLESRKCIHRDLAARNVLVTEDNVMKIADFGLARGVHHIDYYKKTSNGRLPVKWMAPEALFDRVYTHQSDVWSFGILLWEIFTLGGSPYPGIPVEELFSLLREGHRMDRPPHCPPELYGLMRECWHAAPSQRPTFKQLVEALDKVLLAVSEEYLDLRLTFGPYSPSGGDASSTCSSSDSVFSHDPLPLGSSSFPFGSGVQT
T4 sequence (P21802 22-821): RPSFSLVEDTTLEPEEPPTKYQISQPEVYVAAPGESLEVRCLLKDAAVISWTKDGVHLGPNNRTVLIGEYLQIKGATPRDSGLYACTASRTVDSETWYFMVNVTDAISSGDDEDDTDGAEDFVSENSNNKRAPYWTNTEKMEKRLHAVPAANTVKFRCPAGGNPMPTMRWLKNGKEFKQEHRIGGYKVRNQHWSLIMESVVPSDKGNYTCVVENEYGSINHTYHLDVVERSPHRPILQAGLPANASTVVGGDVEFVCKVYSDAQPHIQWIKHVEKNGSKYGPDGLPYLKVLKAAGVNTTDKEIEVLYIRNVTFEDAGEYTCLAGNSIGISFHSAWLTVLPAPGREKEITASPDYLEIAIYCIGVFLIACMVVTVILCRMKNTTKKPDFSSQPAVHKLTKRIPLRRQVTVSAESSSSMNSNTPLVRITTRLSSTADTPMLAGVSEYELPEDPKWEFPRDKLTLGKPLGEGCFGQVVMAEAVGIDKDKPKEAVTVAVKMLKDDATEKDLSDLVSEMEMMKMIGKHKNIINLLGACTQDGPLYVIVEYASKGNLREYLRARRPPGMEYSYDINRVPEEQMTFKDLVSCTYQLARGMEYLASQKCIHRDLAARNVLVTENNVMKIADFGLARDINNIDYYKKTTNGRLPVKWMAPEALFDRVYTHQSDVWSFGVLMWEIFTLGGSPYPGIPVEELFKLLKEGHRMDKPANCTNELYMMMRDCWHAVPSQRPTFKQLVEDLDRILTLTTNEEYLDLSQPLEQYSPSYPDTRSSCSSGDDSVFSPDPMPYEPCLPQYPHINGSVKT
T5 sequence (P22607 397-758 limits assumed): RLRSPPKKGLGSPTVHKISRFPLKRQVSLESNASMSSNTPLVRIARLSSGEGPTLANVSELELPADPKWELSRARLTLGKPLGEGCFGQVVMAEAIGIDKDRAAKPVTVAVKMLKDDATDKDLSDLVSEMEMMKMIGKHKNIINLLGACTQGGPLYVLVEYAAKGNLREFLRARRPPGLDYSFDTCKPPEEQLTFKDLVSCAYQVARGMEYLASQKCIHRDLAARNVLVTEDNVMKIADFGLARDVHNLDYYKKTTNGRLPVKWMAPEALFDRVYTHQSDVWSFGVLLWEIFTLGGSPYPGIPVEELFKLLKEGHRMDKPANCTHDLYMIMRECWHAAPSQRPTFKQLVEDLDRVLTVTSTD

| Compound | Kd [1] [nM] | Kd [2] [nM] | Kd [3] [nM] | Kd [4] [nM] | IC50 [5] [nM] | IC50 [6] [nM] |
| --- | --- | --- | --- | --- | --- | --- |
| C[C@@H](Oc1ccc2[nH]nc(-c3ccc(N)nc3)c2c1)c1c(Cl)cncc1Cl [Example 8, (R)-5-(5-(1-(3,5-Dichloropyridin-4-yl)ethoxy)-1H-indazol-3-yl)pyridin-2-amine] | 0.1 to 100 | 0.1 to 100 | 0.1 to 100 | 0.1 to 100 | 0.1 to 100 | 0.1 to 100 |
| CNC(=O)c1ccc(-c2n[nH]c3ccc(O[C@H](C)c4c(Cl)cncc4Cl)cc23)cn1 [Example 9, (R)-5-(5-(1-(3,5-Dichloropyridin-4-yl)ethoxy)-1H-indazol-3-yl)-N-methylpicolinamide] | 0.1 to 100 | 0.1 to 100 | 0.1 to 100 | 0.1 to 100 | 0.1 to 100 | 100 to 250 |
| C[C@@H](Oc1ccc2[nH]nc(-c3ccc(NC(=O)CN(C)C)nc3)c2c1)c1c(Cl)cncc1Cl [Example 13, N-[5-[5-[(1R)-1-(3,5-dichloro-4-pyridyl)ethoxy]-1H-indazol-3-yl]-2-pyridyl]-2-(dimethylamino)-acetamide] | 0.1 to 100 | 0.1 to 100 | 0.1 to 100 | 0.1 to 100 | 0.1 to 100 | 0.1 to 100 |
| C[C@@H](Oc1ccc2[nH]nc(-c3ccc(NC(=O)N4CCOCC4)nc3)c2c1)c1c(Cl)cncc1Cl [Example 16, N-[5-[5-[(1R)-1-(3,5-dichloro-4-pyridyl)ethoxy]-1H-indazol-3-yl]-2-pyridyl]morpholine-4-carboxamide] | 0.1 to 100 | 0.1 to 100 | 0.1 to 100 | 0.1 to 100 | 0.1 to 100 | 0.1 to 100 |
| COc1c(F)cc(-c2n[nH]c3ccc(O[C@H](C)c4c(C)cnnc4C)cc23)cc1C#N [Example 82, 5-[5-[(1R)-1-(3,5-dimethylpyridazin-4-yl)ethoxy]-1H-indazol-3-yl]-3-fluoro-2-methoxy-benzonitrile] | 0.1 to 100 | 0.1 to 100 | 100 to 250 | 100 to 250 | 100 to 250 | – |
| C[C@@H](Oc1ccc2[nH]nc(-c3ccc4c(c3)C(=O)CC3(CCNCC3)O4)c2c1)c1c(Cl)cncc1Cl [Example 92, (R)-6-(5-(1-(3,5-Dichloropyridin-4-yl)ethoxy)-1H-indazol-3-yl)spiro[chromane-2,4′-piperidin]-4-one] | 0.1 to 100 | 0.1 to 100 | 0.1 to 100 | 0.1 to 100 | 0.1 to 100 | 250 to 1000 |
| CCN1CCC2(CC1)CC(=O)c1cc(-c3n[nH]c4ccc(O[C@H](C)c5c(Cl)cncc5Cl)cc34)ccc1O2 [Example 95, (R)-6-(5-(1-(3,5-Dichloropyridin-4-yl)ethoxy)-1H-indazol-3-yl)-1′-ethylspiro[chromane-2,4′-piperidin]-4-one] | 0.1 to 100 | 0.1 to 100 | 0.1 to 100 | 0.1 to 100 | 0.1 to 100 | 100 to 250 |
| CCN1CCC2(CC1)OCc1cc(-c3n[nH]c4ccc(O[C@H](C)c5c(Cl)cncc5Cl)cc34)ccc1O2 [Example 96, (R)-6-(5-(1-(3,5-Dichloropyridin-4-yl)ethoxy)-1H-indazol-3-yl)-1′-ethyl-4H-spiro[benzo[d][1,3]dioxine-2,4′-piperidine]] | 0.1 to 100 | 0.1 to 100 | 0.1 to 100 | 0.1 to 100 | 0.1 to 100 | 100 to 250 |
| CCN1CCC2(CC1)OCc1cc(-c3n[nH]c4ccc(O[C@H](C)c5c(C)cnnc5C)cc34)ccc1O2 [Example 106, (R)-6-(5-(1-(3,5-dimethylpyridazin-4-yl)ethoxy)-1H-indazol-3-yl)-1′-ethyl-4H-spiro[benzo[d][1,3]dioxine-2,4′-piperidine]] | 0.1 to 100 | 0.1 to 100 | 0.1 to 100 | 0.1 to 100 | 0.1 to 100 | 0.1 to 100 |
| CCN1CCC2(CCc3cc(-c4n[nH]c5ccc(O[C@H](C)c6c(C)cnnc6C)cc45)ccc3O2)CC1 [Example 111, (R)-6-(5-(1-(3,5-dimethylpyridazin-4-yl)ethoxy)-1H-indazol-3-yl)-1′-ethylspiro[chroman-2,4′-piperidine]] | 0.1 to 100 | 0.1 to 100 | 0.1 to 100 | 0.1 to 100 | 0.1 to 100 | 0.1 to 100 |
| Cc1cnnc(C)c1[C@@H](C)Oc1ccc2[nH]nc(-c3ccc4c(c3)COC3(CCN(C(C)C)CC3)O4)c2c1 [Example 112, (R)-6-(5-(1-(3,5-dimethylpyridazin-4-yl)ethoxy)-1H-indazol-3-yl)-1′-isopropyl-4H-spiro[benzo[d][1,3]dioxine-2,4′-piperidine]] | 0.1 to 100 | 0.1 to 100 | 0.1 to 100 | 0.1 to 100 | 0.1 to 100 | 0.1 to 100 |
| Cc1ncc(Cl)c([C@@H](C)Oc2cc3c(-c4cnc5c(c4)N(S(C)(=O)=O)CCO5)n[nH]c3cc2Cl)c1Cl [Example 143, 7-[6-chloro-5-[(1R)-1-(3,5-dichloro-2-methyl-4-pyridyl)ethoxy]-1H-indazol-3-yl]-1-methylsulfonyl-2,3-dihydropyrido[2,3-b][1,4]oxazine] | 100 to 250 | 100 to 250 | > 1000 | > 1000 | – | – |
| CCS(=O)(=O)N1CCOc2ncc(-c3n[nH]c4ccc(O[C@H](C)c5c(Cl)cncc5Cl)cc34)cc21 [Example 144] | > 1000 | 0.1 to 100 | > 1000 | > 1000 | – | – |
| C[C@@H](Oc1cc2c(-c3cnc4c(c3)N(S(C)(=O)=O)CCO4)n[nH]c2cc1Cl)c1c(Cl)cncc1Cl [Example 145, 7-[6-chloro-5-[(1R)-1-(3,5-dichloro-4-pyridyl)ethoxy]-1H-indazol-3-yl]-1-methylsulfonyl-2,3-dihydropyrido[2,3-b][1,4]oxazine] | > 1000 | 0.1 to 100 | > 1000 | > 1000 | – | – |
| COc1cc2[nH]nc(-c3cnc4c(c3)NCCO4)c2cc1O[C@H](C)c1c(Cl)cncc1Cl [Example 146] | 0.1 to 100 | 0.1 to 100 | 0.1 to 100 | 0.1 to 100 | – | – |
| COc1cc2[nH]nc(-c3ccc(N(C)C)nc3)c2cc1O[C@H](C)c1c(Cl)cnc(C)c1Cl [Example 149, 5-[5-[(1R)-1-(3,5-dichloro-2-methyl-4-pyridyl)ethoxy]-6-methoxy-1H-indazol-3-yl]-N,N-dimethyl-pyridin-2-amine] | 0.1 to 100 | 0.1 to 100 | 0.1 to 100 | 0.1 to 100 | – | – |
| Cc1cc(-c2n[nH]c3ccc(O[C@H](C)c4c(Cl)cnc(C)c4Cl)cc23)cnc1O[C@H]1CCOC1 [Example 154, 5-[(1R)-1-(3,5-dichloro-2-methyl-4-pyridyl)ethoxy]-3-[5-methyl-6-[(3S)-tetrahydrofuran-3-yl]oxy-3-pyridyl]-1H-indazole] | 0.1 to 100 | 0.1 to 100 | 250 to 1000 | 250 to 1000 | – | – |
| C[C@@H](Oc1ccc2[nH]nc(-c3ccc(OC4CC5(COC5)C4)nc3)c2c1)c1c(Cl)cncc1Cl [Example 161, (R)-3-(6-(2-oxaspiro[3.3]heptan-6-yloxy)pyridin-3-yl)-5-(1-(3,5-dichloropyridin-4-yl)ethoxy)-1H-indazole] | 0.1 to 100 | 0.1 to 100 | 0.1 to 100 | 0.1 to 100 | – | – |
| Cc1ncc(Cl)c([C@@H](C)Oc2ccc3[nH]nc(-c4ccc5c(c4)COC4(CCN(CC(F)(F)F)CC4)O5)c3c2)c1Cl [Example 167, 6-[5-[(1R)-1-(3,5-dichloro-2-methyl-4-pyridyl)ethoxy]-1H-indazol-3-yl]-1′-(2,2,2-trifluoroethyl)spiro[4H-1,3-benzodioxine-2,4′-piperidine]] | 0.1 to 100 | 0.1 to 100 | 100 to 250 | 100 to 250 | – | – |
| C[C@@H](Oc1ccc2[nH]nc(-c3ccc4c(c3)COC3(CCN(CC(F)F)CC3)O4)c2c1)c1c(Cl)cncc1Cl [Example 168, 6-[5-[(1R)-1-(3,5-dichloro-4-pyridyl)ethoxy]-1H-indazol-3-yl]-1′-(2,2-difluoroethyl)spiro[4H-1,3-benzodioxine-2,4′-piperidine]] | 0.1 to 100 | 0.1 to 100 | 0.1 to 100 | 0.1 to 100 | – | – |
